3 molecules from ChEMBL document CHEMBL3865812, “Selective killing of cancer cells with triterpenoic acid amides - The substantial role of an aromatic moiety alignment” (Eur J Med Chem, 2016) can be followed below.

The nature of data set [1]: Cytotoxicity against human 518A2 cells measured after 96 hrs by SRB assay. To be noted: 518A2, 96 h. The data set is classed as functional, cell-based.
Data set [2] in a line: Cytotoxicity against human HT-29 cells measured after 96 hrs by SRB assay. The format is functional, cell-based. As to conditions: HT-29, 96 h. On the technique in general: The SRB assay estimates cell density from bound dye.
A short description of data set [3]: Cytotoxicity against human MCF7 cells measured after 96 hrs by SRB assay. To be noted: MCF7, 96 h. The data set is classed as functional, cell-based.
Data set [4] can be described thus: Cytotoxicity against human A549 cells measured after 96 hrs by SRB assay. The data set is classed as functional, cell-based. As to conditions: A549, 96 h.
Data set [5] in a line: Cytotoxicity against human A2780 cells measured after 96 hrs by SRB assay. The data set is classed as functional, cell-based. As to conditions: A2780, 96 h.
The nature of data set [6]: Cytotoxicity against human 8505C cells measured after 96 hrs by SRB assay. The format is functional, cell-based.
Data set [7] is described as follows: Cytotoxicity against mouse NIH/3T3 cells measured after 96 hrs by SRB assay. The data set is classed as toxicity, NIH3T3.
In data set [8] the test system is A2780. As to the kind of experiment: Induction of apoptosis in human A2780 cells assessed as increase in apoptotic cells at 6 uM measured after 2 days by Annexin V/FITC/propidium iodide staining-based FACS analysis. The format is functional, cell-based. A general note: In flow cytometry, cells or beads pass a laser one at a time.
The test system of data set [9] is A2780. As to the kind of experiment: Induction of apoptosis in human A2780 cells assessed as secondary necrotic cells at 6 uM measured after 2 days by Annexin V/FITC/propidium iodide staining-based FACS analysis. The format is functional, cell-based.
Data set [10] relates to A2780. The data set is described as follows: Induction of apoptosis in human A2780 cells assessed as induction of membrane blebbing at 6 uM measured after 40 hrs by acridine orange/propidium iodide staining-based fluorescence microscopic analysis. The data set is classed as functional, cell-based.
Data set [11] has as its system A2780. The data set is described as follows: Induction of apoptosis in human A2780 cells assessed as secondary necrotic cells at 6 uM measured after 40 hrs by acridine orange/propidium iodide staining-based fluorescence microscopic analysis. The format is functional, cell-based.
Data set [12] in a line: Cell cycle arrest in human A2780 cells assessed as decrease in G1 peak at 6 uM measured after 24 hrs by propidium iodide staining based FACS analysis. The data set is classed as functional.
Data set [13] can be described thus: Cell cycle arrest in human A2780 cells assessed as accumulation at S-phase at 6 uM measured after 24 hrs by propidium iodide staining based FACS analysis. The data set is classed as functional.
The nature of data set [14]: Cell cycle arrest in human A2780 cells assessed as loss of G2 peak at 6 uM measured after 24 hrs by propidium iodide staining based FACS analysis. The format is functional.
Data set [15] in a line: Cell cycle arrest in human A2780 cells assessed as decrease in accumulation of cells at S-phase at 6 uM measured after 48 hrs by propidium iodide staining based FACS analysis. The data set is classed as functional.
Data set [16] in a line: Cell cycle arrest in human A2780 cells assessed as sub-G1 peak appearance at 6 uM measured after 48 hrs by propidium iodide staining based FACS analysis. The format is functional.
In data set [17] the test system is A2780. The data set is described as follows: Selectivity index, ratio of EC50 for mouse NIH/3T3 cells to EC50 for human A2780 cells. The data set is classed as functional.
Data set [18] deals with A2780. The data set is described as follows: Induction of apoptosis in human A2780 cells assessed as increase in apoptotic cells at 1.5 uM measured after 24 hrs by Annexin V/FITC/propidium iodide staining-based FACS analysis relative to control. The data set is classed as functional.
In data set [19] the test system is A2780. As to the kind of experiment: Induction of apoptosis in human A2780 cells assessed as apoptotic cells at 1.5 uM measured after 48 hrs by Annexin V/FITC/propidium iodide staining-based FACS analysis relative to control. The data set is classed as functional.
The test system of data set [20] is A2780. As to the kind of experiment: Induction of apoptosis in human A2780 cells assessed as increase in secondary necrotic cells at 1.5 uM measured after 48 hrs by Annexin V/FITC/propidium iodide staining-based FACS analysis relative to control. The data set is classed as functional.
Data set [21] in a line: Cell cycle arrest in human A2780 cells assessed as decrease in G1 peak at 1.5 uM measured after 24 hrs by propidium iodide staining based FACS analysis. The format is functional.
Data set [22] is described as follows: Cell cycle arrest in human A2780 cells assessed as accumulation at S-phase at 1.5 uM measured after 24 hrs by propidium iodide staining based FACS analysis. The data set is classed as functional.
Data set [23] is described as follows: Cell cycle arrest in human A2780 cells assessed as loss of G2 peak at 1.5 uM measured after 24 hrs by propidium iodide staining based FACS analysis. The data set is classed as functional.
Data set [24] in a line: Cell cycle arrest in human A2780 cells assessed as decrease in accumulation of cells at S-phase at 1.5 uM measured after 48 hrs by propidium iodide staining based FACS analysis. The data set is classed as functional.
Data set [25] is described as follows: Cell cycle arrest in human A2780 cells assessed as sub-G1 peak appearance at 1.5 uM measured after 48 hrs by propidium iodide staining based FACS analysis. The data set is classed as functional.

Active and inactive are the calls of the source. No cut-off for these calls is given here.

Consider `CC(=O)O[C@H]1C[C@]2(C)[C@H]3CC=C4[C@@H]5CC(C)(C)CC[C@]5(C(=O)Nc5cncc6ccccc56)CC[C@@]4(C)[C@]3(C)CC[C@H]2C(C)(C)[C@H]1OC(C)=O`, for which the concentration giving a half-maximal response (EC50) – broadly, the concentration at which the effect is half-maximal – in data set [1] stood at 1.6 µM; in data set [2], 2.3 µM; in data set [3] it was 2.4 µM; in data set [4] it was 3.3 µM; in [5], 1.2 µM; in [6], 2.6 µM. Also, the half-maximal effective concentration (EC50) at 96 h in data set [7] was more than 60 µM. For the same molecule, the result (in the data set on A2780 [8]; in the data set with A2780 [9]; in the data set on A2780 [10]; in the data set with A2780 [11]; in [12]; in data set [13]) was Active. Moreover, the result in data set [14], in data set [15] and in data set [16] was Active.
In the case of `CC(=O)OC[C@@]1(C)[C@@H]2CC[C@]3(C)[C@H](CC=C4[C@@H]5[C@@H](C)[C@H](C)CC[C@]5(C(=O)Nc5cncc6ccccc56)CC[C@]43C)[C@@]2(C)C[C@@H](OC(C)=O)[C@@H]1OC(C)=O`, the “Ratio EC50” value in the data set on A2780 [17] is 40. In addition, the EC50 in data set [1] turned out to be 0.19 µM; in [2] it was 0.22 µM; in [3], 0.54 µM; in data set [4], 0.29 µM; in data set [5], 0.08 µM. In addition, in data set [7], the concentration for a half-maximal effect (EC50) at 96 h was found to be 3.23 µM. Also, the result (in the data set on A2780 [8]; in the data set with A2780 [9]; in data set [21]; in data set [22]; in [23]; in data set [24]) was Active. In addition, the result in data set [25] was Active. Further, the figures for the Activity with A2780 [18], with A2780 [19] and with A2780 [20] were 20%, 10% and 45%, respectively.
As for `CC(=O)OC[C@@]1(C)[C@@H]2CC[C@]3(C)[C@H](CC=C4[C@@H]5[C@@H](C)[C@H](C)CC[C@]5(C(=O)Nc5cccc6ncccc56)CC[C@]43C)[C@@]2(C)C[C@@H](OC(C)=O)[C@@H]1OC(C)=O`, the EC50 amounted to 0.5 µM in [1]; 0.8 µM in data set [2]; 1.4 µM in data set [3]; 1.1 µM in data set [4]; 0.4 µM in data set [5]; 0.9 µM in [6]. For the same molecule, the EC50 at 96 h in [7] worked out at 10.2 µM. Moreover, the outcome (in the data set on A2780 [8]; with A2780 [9]; in the data set with A2780 [19]; with A2780 [20]; in [21]; in data set [22]) was Active. The outcome in [23], in data set [24] and in data set [25] was Active.
